From patent US20240101559A1, “TRICYCLIC KINASE INHIBITORS AND USES THEREOF” (DANA-FARBER CANCER INSTITUTE, INC., priority 2019, published 2024)

Legend:
JAK2 = JAK2 (Homo sapiens (Human), UniProt O60674); assay: JAK2 Z-Lyte biochemical assay; details: commercial JAK2 Z-Lyte assay from Invitrogen
Procedure: Example 3. JAK2 Z-Lyte Biochemical Assay of the Compounds of the Present Disclosure
The JAK2 Z-Lyte biochemical assay was performed according to manufacturer's instructions (Life Technologies).

[1] = test system: cell lines or patient-derived xenografts from patients with CRLF2-rearranged B-ALL; details: cited from earlier work
CDK11A = CDK11A (Homo sapiens (Human), UniProt Q9UQ88); assay: Competition binding assay (kinase-tagged phage, qPCR); details: 11 serial threefold dilutions, read-out: inhibition on CDK11A, IC50
Procedure: Compounds of the present disclosure were analyzed with a competition binding assay with three components: a kinase-tagged phage, a compound of the present disclosure, and an immobilized ligand that the test compound competes with to displace the kinase. The amount of kinase bound to the immobilized ligand is determined using quantitative PCR of the DNA tag. Kd values (nM) reported for each compound were determined using 11 serial threefold dilutions of test compound and a DMSO control.

CDK11/CycL = assay: NanoBRET assay, CDK11/CycL; type: cell-based; details: live cells, read-out: inhibition of CDK11/CycL interaction
From the text: (§1) The NanoBRET™ assay (Promega Corporation) is a bioluminescence resonance energy transfer (BRET)-based assay that uses NanoLuc® Luciferase as the BRET energy donor and HaloTag® protein labeled with the HaloTag® NanoBRET™ 618 fluorescent Ligand as the energy acceptor to measure the interaction of two binding partners in live cells.

[2] = Commercial microsome stability assay (half-life analysis); type: in vitro ADME; details: mouse liver microsomes; read-out: half-life in mouse liver microsomes (MLM)
CDK11/cycK = assay: NanoBRET assay, CDK11/cycK; type: cell-based; details: live cells, read-out: inhibition of CDK11/cycK interaction
From the text: as §1

DDR1 = DDR1 (Homo sapiens (Human), UniProt Q08345); assay: KINOMEscan kinase selectivity profiling; type: binding; details: DDR1, 1 μM; read-out: Ambit KINOMEscan (percent control %)
From the text: (§2) Example 7. In Vitro Kinase Selectivity Profiling of the Compounds of the Present Disclosure

KIT(L576P) = KIT(L576P) (Homo sapiens (Human), UniProt P10721, L576P); assay: KINOMEscan kinase selectivity profiling; type: binding; details: read-out: Ambit KINOMEscan (percent control %)
From the text: as §2

TAOK2 = TAOK2 (Homo sapiens (Human), UniProt Q9UL54); assay: KINOMEscan kinase selectivity profiling; type: binding; details: TAOK2, 1 μM; read-out: Ambit KINOMEscan (percent control %)
Chain of TAOK2 (Q9UL54 whole entry): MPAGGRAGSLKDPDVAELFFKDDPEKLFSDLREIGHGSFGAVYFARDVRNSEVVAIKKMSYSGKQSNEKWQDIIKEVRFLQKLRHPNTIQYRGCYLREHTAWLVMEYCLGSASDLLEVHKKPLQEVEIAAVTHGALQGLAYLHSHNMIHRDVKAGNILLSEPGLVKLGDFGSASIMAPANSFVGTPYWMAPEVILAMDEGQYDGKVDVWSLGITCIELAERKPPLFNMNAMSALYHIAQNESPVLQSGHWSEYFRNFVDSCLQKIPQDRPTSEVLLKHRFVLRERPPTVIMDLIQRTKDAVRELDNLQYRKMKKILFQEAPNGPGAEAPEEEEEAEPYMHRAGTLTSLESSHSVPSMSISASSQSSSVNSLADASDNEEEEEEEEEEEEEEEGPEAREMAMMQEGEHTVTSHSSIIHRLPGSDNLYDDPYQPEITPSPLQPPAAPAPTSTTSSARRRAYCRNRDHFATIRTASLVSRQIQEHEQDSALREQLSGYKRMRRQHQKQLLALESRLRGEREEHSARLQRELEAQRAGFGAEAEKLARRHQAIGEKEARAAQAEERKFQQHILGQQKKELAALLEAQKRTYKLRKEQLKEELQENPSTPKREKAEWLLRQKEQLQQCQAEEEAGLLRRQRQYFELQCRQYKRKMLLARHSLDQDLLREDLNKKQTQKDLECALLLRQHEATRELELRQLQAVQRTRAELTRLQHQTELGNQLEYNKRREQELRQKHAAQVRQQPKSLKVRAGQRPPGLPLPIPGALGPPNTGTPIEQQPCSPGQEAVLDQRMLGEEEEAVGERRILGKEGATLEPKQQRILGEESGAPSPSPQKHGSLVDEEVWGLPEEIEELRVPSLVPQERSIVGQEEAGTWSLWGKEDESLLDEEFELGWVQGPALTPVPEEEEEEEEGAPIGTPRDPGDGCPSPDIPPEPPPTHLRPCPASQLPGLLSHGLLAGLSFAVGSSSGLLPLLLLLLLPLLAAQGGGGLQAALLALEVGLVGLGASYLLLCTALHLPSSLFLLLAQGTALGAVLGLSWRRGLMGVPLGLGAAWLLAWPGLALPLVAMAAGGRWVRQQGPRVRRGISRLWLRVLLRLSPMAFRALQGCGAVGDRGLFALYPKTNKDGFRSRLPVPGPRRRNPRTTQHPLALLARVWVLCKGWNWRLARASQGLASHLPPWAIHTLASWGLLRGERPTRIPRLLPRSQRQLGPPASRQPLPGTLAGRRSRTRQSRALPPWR
From the text: as §2

PDGFRB = PDGFRB (Homo sapiens (Human), UniProt P09619); assay: KINOMEscan kinase selectivity profiling; type: binding; details: read-out: Ambit KINOMEscan (percent control %)
Chain of PDGFRB (P09619 33-1106): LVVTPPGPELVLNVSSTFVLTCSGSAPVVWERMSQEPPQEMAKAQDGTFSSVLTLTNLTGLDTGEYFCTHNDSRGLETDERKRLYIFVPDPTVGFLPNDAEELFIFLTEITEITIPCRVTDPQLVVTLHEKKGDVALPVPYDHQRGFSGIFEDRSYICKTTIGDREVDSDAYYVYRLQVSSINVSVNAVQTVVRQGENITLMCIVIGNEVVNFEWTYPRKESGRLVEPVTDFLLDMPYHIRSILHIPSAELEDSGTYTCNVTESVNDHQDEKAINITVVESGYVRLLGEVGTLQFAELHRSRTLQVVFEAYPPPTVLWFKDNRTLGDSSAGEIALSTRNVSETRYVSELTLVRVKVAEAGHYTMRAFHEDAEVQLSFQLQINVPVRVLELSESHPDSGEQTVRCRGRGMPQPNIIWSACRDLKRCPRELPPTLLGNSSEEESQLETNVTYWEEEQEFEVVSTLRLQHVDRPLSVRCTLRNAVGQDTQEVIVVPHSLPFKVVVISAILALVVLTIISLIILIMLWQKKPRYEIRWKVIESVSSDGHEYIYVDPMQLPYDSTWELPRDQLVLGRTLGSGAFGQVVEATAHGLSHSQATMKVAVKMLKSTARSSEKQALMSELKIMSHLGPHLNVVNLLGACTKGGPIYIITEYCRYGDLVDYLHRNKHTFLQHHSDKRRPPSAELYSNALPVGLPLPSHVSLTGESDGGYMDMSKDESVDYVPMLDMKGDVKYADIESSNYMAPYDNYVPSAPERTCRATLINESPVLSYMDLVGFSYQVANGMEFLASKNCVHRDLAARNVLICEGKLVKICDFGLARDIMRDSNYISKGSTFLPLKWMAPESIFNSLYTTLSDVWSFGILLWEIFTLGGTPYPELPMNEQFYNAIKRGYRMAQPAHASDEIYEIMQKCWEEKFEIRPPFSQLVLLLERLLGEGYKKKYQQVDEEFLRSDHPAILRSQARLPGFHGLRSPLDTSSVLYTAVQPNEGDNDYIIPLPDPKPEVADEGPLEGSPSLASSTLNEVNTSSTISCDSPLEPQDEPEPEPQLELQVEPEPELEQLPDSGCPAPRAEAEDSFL
From the text: as §2

DDR2 = DDR2 (Homo sapiens (Human), UniProt Q16832); assay: KINOMEscan kinase selectivity profiling; type: binding; details: DDR2, 1 μM; read-out: Ambit KINOMEscan (percent control %)
From the text: as §2

BRAF = BRAF (Homo sapiens (Human), UniProt P15056); assay: KINOMEscan kinase selectivity profiling; type: binding; details: read-out: Ambit KINOMEscan (percent control %)
Chain of BRAF (P15056 whole entry): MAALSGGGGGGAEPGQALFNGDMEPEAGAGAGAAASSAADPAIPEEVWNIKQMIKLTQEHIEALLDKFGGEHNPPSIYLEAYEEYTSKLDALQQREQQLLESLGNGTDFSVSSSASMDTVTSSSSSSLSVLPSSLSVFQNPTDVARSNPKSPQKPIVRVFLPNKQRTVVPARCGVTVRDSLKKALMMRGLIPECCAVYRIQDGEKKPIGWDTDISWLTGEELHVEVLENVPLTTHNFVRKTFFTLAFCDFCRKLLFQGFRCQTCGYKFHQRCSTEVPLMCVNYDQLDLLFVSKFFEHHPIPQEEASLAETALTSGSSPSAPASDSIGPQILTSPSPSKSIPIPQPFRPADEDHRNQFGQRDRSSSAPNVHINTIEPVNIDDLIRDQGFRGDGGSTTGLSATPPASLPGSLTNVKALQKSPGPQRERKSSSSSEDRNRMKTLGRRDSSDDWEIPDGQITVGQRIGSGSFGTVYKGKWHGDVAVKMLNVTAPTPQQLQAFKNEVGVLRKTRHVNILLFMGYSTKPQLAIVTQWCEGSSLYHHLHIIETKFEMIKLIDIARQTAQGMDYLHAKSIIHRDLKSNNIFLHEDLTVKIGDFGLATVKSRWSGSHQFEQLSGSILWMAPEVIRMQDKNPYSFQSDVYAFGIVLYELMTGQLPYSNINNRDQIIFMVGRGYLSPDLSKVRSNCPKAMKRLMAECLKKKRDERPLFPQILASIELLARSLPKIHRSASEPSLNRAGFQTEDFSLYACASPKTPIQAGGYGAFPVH
From the text: as §2

BRAF(V600E) = BRAF(V600E) (Homo sapiens (Human), UniProt P15056, V600E); assay: KINOMEscan kinase selectivity profiling; type: binding; details: read-out: Ambit KINOMEscan (percent control %)
Chain of BRAF(V600E) (P15056 whole entry V600E): as the sequence (P15056 whole entry) above, with V600E counted along it
From the text: as §2

CDC2L2 = CDC2L2 (Homo sapiens (Human), UniProt Q9UQ88); assay: KINOMEscan kinase selectivity profiling; type: binding; details: CDC2L2, 1 μM; read-out: Ambit KINOMEscan (percent control %)
From the text: as §2

CSF1R = CSF1R (Homo sapiens (Human), UniProt P07333); assay: KINOMEscan kinase selectivity profiling; type: binding; details: read-out: Ambit KINOMEscan (percent control %)
From the text: as §2

CDK11B = CDK11B (Homo sapiens (Human), UniProt P21127); assay: KINOMEscan kinase selectivity profiling; type: binding; details: read-out: Ambit KINOMEscan (percent control %)
Chain of CDK11B (P21127 whole entry): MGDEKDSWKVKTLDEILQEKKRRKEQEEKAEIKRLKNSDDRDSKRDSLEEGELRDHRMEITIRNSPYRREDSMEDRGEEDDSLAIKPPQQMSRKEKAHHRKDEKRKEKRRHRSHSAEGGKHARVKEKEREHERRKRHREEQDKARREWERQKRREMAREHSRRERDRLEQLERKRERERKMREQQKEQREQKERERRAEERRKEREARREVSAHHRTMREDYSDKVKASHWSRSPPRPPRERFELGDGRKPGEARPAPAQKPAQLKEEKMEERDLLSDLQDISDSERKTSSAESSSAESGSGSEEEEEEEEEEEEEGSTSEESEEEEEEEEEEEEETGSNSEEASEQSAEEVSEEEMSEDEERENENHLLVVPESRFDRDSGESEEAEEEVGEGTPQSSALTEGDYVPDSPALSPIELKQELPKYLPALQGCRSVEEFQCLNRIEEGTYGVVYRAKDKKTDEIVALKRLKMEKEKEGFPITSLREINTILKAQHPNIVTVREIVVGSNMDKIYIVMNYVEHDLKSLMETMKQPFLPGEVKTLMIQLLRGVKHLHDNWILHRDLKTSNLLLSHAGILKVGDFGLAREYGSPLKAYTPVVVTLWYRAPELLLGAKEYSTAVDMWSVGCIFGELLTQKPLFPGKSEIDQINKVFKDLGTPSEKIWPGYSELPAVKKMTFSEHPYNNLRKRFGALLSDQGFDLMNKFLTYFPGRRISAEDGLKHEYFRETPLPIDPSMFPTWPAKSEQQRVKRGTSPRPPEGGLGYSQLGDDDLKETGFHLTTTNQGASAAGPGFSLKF
From the text: as §2

Chain of JAK2 (O60674 whole entry): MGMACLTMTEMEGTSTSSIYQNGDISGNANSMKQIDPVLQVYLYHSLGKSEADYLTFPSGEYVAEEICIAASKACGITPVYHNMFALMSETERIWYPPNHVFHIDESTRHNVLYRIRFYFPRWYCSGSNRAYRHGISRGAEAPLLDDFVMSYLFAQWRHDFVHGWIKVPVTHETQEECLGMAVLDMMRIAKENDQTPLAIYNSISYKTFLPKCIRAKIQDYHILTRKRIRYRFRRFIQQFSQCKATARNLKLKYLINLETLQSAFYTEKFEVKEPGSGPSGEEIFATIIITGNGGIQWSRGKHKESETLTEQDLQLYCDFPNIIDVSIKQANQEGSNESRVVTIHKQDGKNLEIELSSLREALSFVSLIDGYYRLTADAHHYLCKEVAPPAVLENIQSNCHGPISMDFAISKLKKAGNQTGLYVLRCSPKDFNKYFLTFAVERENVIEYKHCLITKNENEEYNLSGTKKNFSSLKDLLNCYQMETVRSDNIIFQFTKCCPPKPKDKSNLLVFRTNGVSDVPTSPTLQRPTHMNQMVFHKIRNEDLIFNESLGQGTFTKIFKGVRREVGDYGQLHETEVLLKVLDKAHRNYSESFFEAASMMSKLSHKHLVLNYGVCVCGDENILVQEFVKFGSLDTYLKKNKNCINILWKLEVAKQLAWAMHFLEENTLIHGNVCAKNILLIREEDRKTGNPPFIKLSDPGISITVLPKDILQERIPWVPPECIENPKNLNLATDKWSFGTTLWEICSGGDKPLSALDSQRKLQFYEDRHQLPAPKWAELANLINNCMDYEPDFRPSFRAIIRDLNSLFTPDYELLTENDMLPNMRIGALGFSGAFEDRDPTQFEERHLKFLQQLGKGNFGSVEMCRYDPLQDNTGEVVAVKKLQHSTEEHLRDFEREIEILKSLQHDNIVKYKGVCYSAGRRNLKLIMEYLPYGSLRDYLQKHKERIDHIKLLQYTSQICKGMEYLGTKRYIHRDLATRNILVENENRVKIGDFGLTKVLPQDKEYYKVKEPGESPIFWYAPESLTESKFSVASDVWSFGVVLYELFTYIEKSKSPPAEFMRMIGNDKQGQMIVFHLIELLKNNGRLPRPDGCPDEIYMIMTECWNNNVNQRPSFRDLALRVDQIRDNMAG

Structure (SMILES): CC(=O)Nc1cc(Oc2ccc3nc(Nc4ccc(F)cc4F)n4c3c2CCC4)ccn1 [Compound I-6, N-(4-((2-((2,4-difluorophenyl)amino)-5,6-dihydro-4H-imidazo[4,5,1-ij]quinolin-7-yl)oxy)pyridin-2-yl)acetamide]
- IC50 (JAK2): 1820 nM

Structure (SMILES): N#CC[C@H](C1CCCC1)n1cc(-c2ncnc3[nH]ccc23)cn1 [Ruxolitinib]
- IC50 [1]: > 20000 nM

Structure (SMILES): CCN1CCN(Cc2ccc(Nc3nc4ccc(Oc5ccnc(NC(C)=O)c5)c5c4n3CCC5)cc2C(F)(F)F)CC1 [Compound I-1, N-(4-((2-((4-((4-ethylpiperazin-1-yl)methyl)-3-(trifluoromethyl)phenyl)amino)-5,6-dihydro-4H-imidazo [4,5,1-ij]quinolin-7-yl)oxy)pyridin-2-yl) acetamide]
- IC50 (CDK11A): 30 nM
- IC50 (JAK2): 820 nM
- IC50 (CDK11/CycL): 290 nM
- half-life [2]: 16.7 min
- IC50 (CDK11/cycK): 278 nM
- remaining binding at 1 µM (DDR1): 0%
- remaining binding at 1 µM (KIT(L576P)): 0.2%
- remaining binding at 1 µM (TAOK2): 0.3%
- remaining binding at 1 µM (PDGFRB): 0.1%
- remaining binding at 1 µM (DDR2): 0%
- remaining binding at 1 µM (BRAF): 5.5%
- remaining binding at 1 µM (BRAF(V600E)): 2%
- remaining binding at 1 µM (CDC2L2): 1%
- remaining binding at 1 µM (CSF1R): 0.75%
- remaining binding at 1 µM (CDK11B): 1.3%

Structure (SMILES): CC(=O)Nc1cc(Oc2ccc3nc(Nc4ccc(CN5CCN(C)CC5)cc4)n4c3c2CCC4)ccn1 [Compound I-5, N-(4-((2-((4-((4-methylpiperazin-1-yl)methyl)phenyl)amino)-5,6-dihydro-4H-imidazo[4,5,1-ij]quinolin-7-yl)oxy)pyridin-2-yl)acetamide]
- IC50 (JAK2): 5940 nM

Structure (SMILES): CC(=O)Nc1cc(Oc2ccc3nc(Nc4cc(-n5cnc(C)c5)cc(C(F)(F)F)c4)n4c3c2CCC4)ccn1 [Compound I-7, N-(4-((2-((3-(4-methyl-1H-imidazol-1-yl)-5-(trifluoromethyl)phenyl)amino)-5,6-dihydro-4H-imidazo[4,5,1-ij]quinolin-7-yl)oxy)pyridin-2-yl)acetamide]
- IC50 (JAK2): 4560 nM

Structure (SMILES): CC(=O)Nc1cc(Oc2ccc3nc(Nc4ccc(OC5CCN(C)CC5)c(C(F)(F)F)c4)n4c3c2CCC4)ccn1 [Compound I-11, N-(4-((2-((4-((1-methylpiperidin-4-yl)oxy)-3-(trifluoromethyl)phenyl)amino)-5,6-dihydro-4H-imidazo[4,5,1-ij]quinolin-7-yl)oxy)pyridin-2-yl)acetamide]
- IC50 (JAK2): 3680 nM

Structure (SMILES): CC(=O)Nc1cc(Oc2ccc3nc(Nc4cc(N5CCN(C)CC5)cc(C(F)(F)F)c4)n4c3c2CCC4)ccn1 [Compound I-8, N-(4-((2-((3-(4-methylpiperazin-1-yl)-5-(trifluoromethyl)phenyl)amino)-5,6-dihydro-4H-imidazo[4,5,1-ij]quinolin-7-yl)oxy)pyridin-2-yl)acetamide]
- IC50 (JAK2): 9930 nM

Structure (SMILES): CC(=O)Nc1cc(Oc2ccc3nc(Nc4ccc(CN5CCC(N(C)C)C5)c(C(F)(F)F)c4)n4c3c2CCC4)ccn1 (stereo not shown) [Compound I-9, N-(4-((2-((4-((3-(dimethylamino)pyrrolidin-1-yl)methyl)-3-(trifluoromethyl)phenyl)amino)-5,6-dihydro-4H-imidazo[4,5,1-ij]quinolin-7-yl)oxy)pyridin-2-yl)acetamide]
- IC50 (JAK2): 1770 nM

Structure (SMILES): CCN1CCN(Cc2cc(Nc3nc4ccc(Oc5ccnc(NC(C)=O)c5)c5c4n3CCC5)cc(C(F)(F)F)c2)CC1 [Compound I-4, N-(4-((2-((3-((4-ethylpiperazin-1-yl)methyl)-5-(trifluoromethyl)phenyl)amino)-5,6-dihydro-4H-imidazo[4,5,1-ij]quinolin-7-yl)oxy)pyridin-2-yl)acetamide]
- IC50 (JAK2): 1810 nM

Structure (SMILES): CC(=O)Nc1cc(Oc2ccc3nc(Nc4cc(C(C)(C)C)nn4-c4ccc(C)cc4)n4c3c2CCC4)ccn1 [Compound I-10, N-(4-((2-((3-(tert-butyl)-1-(p-tolyl)-1H-pyrazol-5-yl)amino)-5,6-dihydro-4H-imidazo[4,5,1-ij]quinolin-7-yl)oxy)pyridin-2-yl)acetamide]
- IC50 (JAK2): > 10000 nM

Structure (SMILES): CC(=O)Nc1cc(Oc2ccc3nc(Nc4ccc(Cl)c(C(F)(F)F)c4)n4c3c2CCC4)ccn1 [Compound I-3, N-(4-((2-((4-chloro-3-(trifluoromethyl)phenyl)amino)-5,6-dihydro-4H-imidazo[4,5,1-ij]quinolin-7-yl)oxy)pyridin-2-yl)acetamide]
- IC50 (JAK2): > 10000 nM
